Among the data in PubChem BioAssay (NCI) are GI50 and TGI values, retold here.

Some test systems named below: BT-549 breast; HL-60(TB) leukemia; HT29 colon; NCI-H460 lung; OVCAR-5 ovarian; SK-MEL-2 melanoma; SN12C renal; T-47D breast; U251 CNS; UACC-257 melanoma.
Holding throughout (test): NCI tumour cell line growth inhibition, 48 h

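Results reflect a 48-hour exposure of cells in 96-well plates to compound at five concentrations. The concentration for 50% growth inhibition is given as GI50. TGI: concentration producing complete growth inhibition.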

For `COc1cc(/C=C/c2cc(/C=C/c3ccc(O)c(OC)c3)[nH]c(=O)n2)ccc1O`, the GI50 in the test with BT-549 breast was 2.06 µM; in the test with HL-60(TB) leukemia, 3.74 µM; in the test on HT29 colon it was 1.3 µM; with NCI-H460 lung it was 3.12 µM; in the test with OVCAR-5 ovarian it was 10 µM; in the test with SK-MEL-2 melanoma, 2.88 µM. The GI50 was 4.38 µM with SN12C renal, 6.5 µM in the test with T-47D breast, 3.15 µM with U251 CNS and 3.36 µM in the test on UACC-257 melanoma. Moreover, the TGI in the test with BT-549 breast was found to be 8.08 µM; in the test on HL-60(TB) leukemia, 12.1 µM; in the test on HT29 colon, 2.67 µM; in the test with NCI-H460 lung, 18.5 µM; with OVCAR-5 ovarian, 28.4 µM; with SK-MEL-2 melanoma it was 6.7 µM. Moreover, the TGI in the test with SN12C renal was over 100 µM; with T-47D breast, 36.9 µM; with U251 CNS, 13.5 µM; in the test with UACC-257 melanoma, 17.9 µM.
Turning to `NC(=S)N/N=C\c1nccc2c(C(F)(F)C(F)(F)C(F)(F)F)cccc12`, the GI50 is 0.313 µM in the test on BT-549 breast; 0.0649 µM in the test with HL-60(TB) leukemia; 0.137 µM in the test with HT29 colon; 0.0619 µM with NCI-H460 lung; 0.123 µM with OVCAR-5 ovarian; 0.388 µM in the test with SK-MEL-2 melanoma. Further, the GI50 was 0.116 µM with SN12C renal, 0.0369 µM in the test with T-47D breast, 0.0569 µM in the test with U251 CNS and 0.12 µM in the test on UACC-257 melanoma. The TGI with BT-549 breast was determined as 11.7 µM; in the test with HL-60(TB) leukemia, 0.665 µM; in the test with HT29 colon, 3.62 µM; with NCI-H460 lung, 1.21 µM; in the test on OVCAR-5 ovarian, 16.8 µM; in the test on SK-MEL-2 melanoma, 3.23 µM. The TGI came out at 2.31 µM with SN12C renal, 1.51 µM in the test on T-47D breast, 1.25 µM in the test on U251 CNS and 0.575 µM in the test on UACC-257 melanoma.
For `CC(=O)Nc1cc2cc(NS(=O)(=O)c3cc(C(F)(F)F)cc(C(F)(F)F)c3)ccc2oc1=O`, the TGI in the test on BT-549 breast, in the test on HL-60(TB) leukemia, in the test with HT29 colon, with NCI-H460 lung, in the test on OVCAR-5 ovarian and in the test with SK-MEL-2 melanoma was over 100 µM each time. Also, the TGI in the test with SN12C renal, with T-47D breast, with U251 CNS and in the test with UACC-257 melanoma was over 100 µM each time.
For the compound `C[C@H]1CC2=CC(=O)CC[C@]2(C)[C@H]2CC[C@@]3(C)[C@@H](CC[C@]3(C)O)[C@H]12`, the GI50 in the test with BT-549 breast is 24.7 µM; in the test on HL-60(TB) leukemia it was 12.9 µM; in the test on HT29 colon it was 44.7 µM; in the test with NCI-H460 lung, 30 µM; in the test on OVCAR-5 ovarian, 55.9 µM; in the test on SK-MEL-2 melanoma, 15.4 µM. For the same compound, the GI50 is 41.6 µM with SN12C renal, 22.5 µM with T-47D breast, 31 µM in the test with U251 CNS and 35.4 µM in the test on UACC-257 melanoma. The TGI was 71.9 µM in the test with BT-549 breast; 36.8 µM in the test on HL-60(TB) leukemia; over 100 µM with HT29 colon; over 100 µM in the test on NCI-H460 lung; over 100 µM in the test with OVCAR-5 ovarian; 37.4 µM with SK-MEL-2 melanoma. In addition, the TGI with SN12C renal is over 100 µM; in the test with T-47D breast, 70.3 µM; in the test on U251 CNS it was over 100 µM; with UACC-257 melanoma it was over 94.1 µM.
Regarding `Cc1ccc(S(=O)(=O)c2ccsc2N)cc1`, the GI50 in the test on BT-549 breast, in the test on HL-60(TB) leukemia, with HT29 colon, with NCI-H460 lung, in the test on OVCAR-5 ovarian and with SK-MEL-2 melanoma was over 100 µM each time. In addition, the GI50 with SN12C renal, with T-47D breast, in the test with U251 CNS and in the test with UACC-257 melanoma was over 100 µM in each case. In addition, the TGI in the test on BT-549 breast, in the test on HL-60(TB) leukemia, in the test with HT29 colon, in the test on NCI-H460 lung, in the test on OVCAR-5 ovarian and in the test on SK-MEL-2 melanoma was over 100 µM each time. The TGI in the test with SN12C renal, in the test with T-47D breast, in the test on U251 CNS and in the test with UACC-257 melanoma was over 100 µM throughout.
